Results taken from US20060099568A1, “Signals and molecular species involved in senescence” (priority 2002, published 2006).
“Also recorded” adds a separate entry of the source.

Columns and labels:
[1] = tested on: human diploid fibroblasts; assay: confocal microscopic measurement of actin polymerization (NBD-phallacidin); type: cell-based; conditions: PDGF 50 ng/ml, LPA 1 μg/ml
Method: FIG. 2 represents differential changes in growth factor-induced actin polymerization in senescent fibroblasts. […] The cells were fixed, permeabilized, and stained with NBD-phallacidin, then photographed.
F-actin was stained as described by Shin et al. (1999). Quiescent cells grown on glass cover slips in multi-well culture plates were treated with agonists for 30 min, and the cells were fixed with 3.7% paraformaldehyde in PBS for 30 min on ice. Following permeabilization with 0.2% Triton X-100 in PBS for 15 min on ice, the cells were stained with […] NBD-phallacidin in PBS for 30 min at RT. The stained cells were washed three times with PBS for 15 min and the cover slip was mounted on a slide glass with Gelvatol, which was prepared by mixing 100 ml of 23% polyvinyl alcohol in PBS with 50 ml glycerol. The cells were then observed under a confocal fluorescence microscope.

[2] = tested on: human diploid fibroblasts; assay: DNA synthesis, [3H]thymidine incorporation; type: cell-based
Method: FIG. 5 represents reduction of growth factor-induced thymidine incorporation in near-senescent fibroblasts. […] The amount of [^3H]thymidine incorporated into DNA over 4 hrs was measured as described. The data represents an average of 3 counts in cpm. A representative experiment of the three is presented in A. Fold increase over the untreated control was calculated and plotted in B.
FIG. 18 represents changes in LPA-induced thymidine incorporation and cell proliferation in near-senescent fibroblasts versus presenescent fibroblasts. Subconfluent presenescent (passage 8, Pa 8) and near-senescent (passage 24, Pa 24) fibroblasts were serum-starved for 2 days and treated with LPA (1-70 μg/ml) for 16 hrs. The amount of [^3H]thymidine incorporated into DNA over 4 hrs was measured as described. The data represents an average of 3 counts in cpm in each independent experiments. A representative experiment of the three is presented in A. Converted fold increase over the untreated control was calculated and plotted in B.
Quiescent cells were labeled with [^3H]thymidine (0.5 μCi/ml) for 4 hrs and the […] radioactive thymidine was removed by washing with PBS. DNA was precipitated with 10% TCA and lysed in 0.5N NaOH. The radioactivity in neutralized lysates was counted in a liquid scintillation cocktail.

PKA = assay: measurement of protein kinase A activity (Kemptide, [γ-32P]ATP); type: cell-based, human; conditions: 30 μg/ml LPA
Method: FIG. 10 represents LPA-dependent PKA activity and CREB phosphorylation in presenescent and near-senescent fibroblasts. Subconfluent presenescent (passage 8, Pa 8) and near-senescent (passage 24, Pa 24) fibroblasts were serum-starved for 2 days and treated with 30 μg/ml LPA for the indicated times. The PKA activity (A) was determined in cell homogenates with kemptide and [γ^32P]ATP as substrates. The radioactivity incorporated into kemptide was measured by a beta-counter and the enzyme activity was calculated as pmol/min/mg protein. The data represents an average of triplicate experiments. The level of phospho-CREB (B) was measured by Western blot analysis using an anti-phospho-CREB antibody.
LPA-treated cells were harvested and homogenized in ice-cold homogenization buffer containing 0.25 M sucrose, 10 mM Tris-HCl, pH 7.5, 10 MM MgCl2, 2 mM EGTA, and protease inhibitors. Homogenates were centrifuged at 20,000×g at 4° C. for 20 min. Protein kinase A assays were performed as described previously (Yang et al., 1999). […] The paper was washed once with 0.75% phosphoric acid and the radioactivity incorporated into Kemptide was quantified on a scintillation counter (Model Tri-Carb 1600 CA, Packard Instrument Company). […] PKI-inhibitable kinase activity was calculated and the data were reported as percent of total PKA activity. […]

ERK1 and ERK2 = assay: ERK activation, phospho-ERK Western blot; type: cell-based, human
Method: Serum-starved presenescent (passage 10, Pa 10) and near-senescent (passage 29, Pa 29) fibroblasts were treated with 30 μg/ml LPA for the indicated times. The level of phospho-ERK in the cytosolic fraction from each cell, as an indication of ERK activation, was measured by Western blot analysis employing anti-phospho-ERK antibody.
The expression levels of signaling proteins were examined by Western blot analysis, as described previously (Yeo et al., 2000a). Total cell lysates were prepared in a lysis buffer containing 50 mM Tris-HCl, pH 7.5, containing 150 mM NaCl, 2 mM EDTA, 1 mM EGTA, 1 mM Na3VO4, 10 mM NaF, 1 mM DTT, 1 mM PMSF, 25 μg/ml leupeptin, 25 μg/ml aprotinin, 5 mM benzamidine, and 1% Nonidet P-40. The protein concentrations of the lysates were determined using a BCA protein assay kit, as described by the protocol supplied by the manufacturer. Cell lysates containing equal amounts of protein were resolved by SDS-polyacrylamide gel electrophoresis and transferred onto Immobilon PVDF membranes. […] To examine the level of phospholipase D 1/2, the immunoprecipitated protein obtained using 10 μl of anti-phospholipase D 1 anti-sera (Box45, ESTP4) was analyzed by Western blot against polyclonal anti-phospholipase D 1 antibodies (1:20 dilution of NC STP4 anti-serum).

Substance: lysophosphatidic acid [LPA]
- actin polymerization (stress fibers) ([1]; presenescent fibroblasts (passage 10)): enhanced the formation of stress fibers
- agonist-induced actin polymerization in senescent cells ([1]; senescent cells (passage 27)): partially reduced
- fold increase of [3H]thymidine incorporation over untreated control, near-senescent vs presenescent ([2]; 50-70 μg/ml LPA): slightly higher
- agonist-induced DNA synthesis ([3H]thymidine incorporation) in near-senescent cells vs presenescent ([2]; near-senescent cells (passage 24)): reduced but less so than PDGF; also recorded: reduced
- concentration at which increase of [3H]thymidine incorporation is apparent ([2]; presenescent fibroblasts): 10 µg/mL
- concentration at which increase of [3H]thymidine incorporation is maximal ([2]; presenescent fibroblasts): 50 to 70 µg/mL
- PKA activity (PKA; near-senescent cells): increased
- PKA activity (PKA; presenescent cells): decreased
- level of phospho-ERK (ERK1 and ERK2; near-senescent HDF (passage 29), 30 μg/ml LPA): did not increase further
- ERK1 and ERK2 activation (phospho-ERK) (ERK1 and ERK2; presenescent HDF (passage 10), 30 μg/ml LPA for 10-30 min): stimulated
